The values that follow come from patent US8450281B2, “Non-immunosuppressive cyclosporin for treatment of Ullrich congenital muscular dystrophy” (Debiopharm S.A., priority 2007, dated 2013).

In series [1] the test system is muscle cell cultures from UCMD patients and healthy donors. Description: Electron microscopy of mitochondria in muscle cell cultures. The format is cell-based, human. The conditions noted are these: for percentage of cells with swollen mitochondria: oligomycin treatment. From the text:
The muscle cell cultures established from healthy donors and from patients 1, 2 and 3 were studied by electron microscopy.

Series [2] can be described thus: Initial phase I clinical studies, safety of oral doses. Format: in vivo, human. As for the experimental part:
Initial phase I clinical studies were carried out to assess the safety of oral doses of [D-MeAla]^3-[EtVal]^4-CsA, and to determine the pharmacokinetic profile and safety profile of the drug substance. […] These side effects were not dose-related.

For series [3], the system named is myoblast cultures from UCMD patients. Description: TUNEL incidence of apoptosis in myoblast cultures from UCMD patients. The settings on record: myoblast cultures from UCMD patients 1-4. Format: cell-based, human. On the procedure:
Experiments were carried out to experimentally test the existence of a causal link between lack of collagen VI and apoptosis. Myoblast cultures were prepared from muscle biopsies of two unaffected controls and from patients 1, 2, 3 and 4 by enzymatic and mechanical treatment and plating in Dulbecco's modified Eagle's medium (DMEM) supplemented with 20% fetal calf serum, penicillin, streptomycin and amphotericin B (Sigma). To test for apoptosis, cells were fixed in 50% acetone-50% methanol and processed for TUNEL analysis using the Dead End Fluorescence TUNEL System (Promega). Visualization of all nuclei was performed by staining with Hoechst 33258. […] Demir et al. 2002. Giusti et al. 2005.
Panels A and B of FIG. 1 show mitochondrial membrane potentials in myoblasts from UCMD patients 1 (A) and 4 (B) as a function of time. Mitochondrial membrane potential was measured based on accumulation of tetramethylrhodamine methyl ester (TMRM). […] The extent of cell and, consequently, mitochondrial loading with potentiometric probes is affected by the activity of the plasma membrane multidrug resistance pump which is inhibited by cyclosporin A. Treatment with cyclosporins may therefore cause an increased mitochondrial fluorescence that can be erroneously interpreted as an increase of mitochondrial membrane potential. […] Data were acquired and analyzed using Cell R software (Olympus). […]

Series [4] shares this test system. Kind of series: Mitochondrial TMRM fluorescence (membrane potential) after oligomycin in myoblast cultures from UCMD patients. Format: cell-based, human. The conditions noted are these: muscle cell cultures from UCMD patients. As for the experimental part: To assess whether the anti-apoptotic effects of collagen VI and CsA could be traced to mitochondria, mitochondrial function was studied in living muscle cell cultures. […] Addition of oligomycin was instead followed by mitochondrial depolarization in the cells from all UCMD patients. […] Mitochondrial membrane potential was assessed based on accumulation of tetramethylrhodamine methyl ester (TMRM). It is noted that oligomycin was expected to cause hyperpolarization in healthy, respiring cells in which the mitochondrial membrane potential is maintained by proton pumping by the respiratory chain and the proton electrochemical gradient is used to drive ATP synthesis.
Panels A and B of FIG. 1 show mitochondrial membrane potentials in myoblasts from UCMD patients 1 (A) and 4 (B) as a function of time. Mitochondrial membrane potential was measured based on accumulation of tetramethylrhodamine methyl ester (TMRM). […] The extent of cell and, consequently, mitochondrial loading with potentiometric probes is affected by the activity of the plasma membrane multidrug resistance pump which is inhibited by cyclosporin A. Treatment with cyclosporins may therefore cause an increased mitochondrial fluorescence that can be erroneously interpreted as an increase of mitochondrial membrane potential. […] Data were acquired and analyzed using Cell R software (Olympus). […] Apoptosis was assessed as described before.

Another series relates to UCMD and BM patients. Kind of series: Preliminary clinical trial, TMRM assay on muscle biopsies of UCMD and BM patients. Format: in vivo, human. The settings on record: daily oral dose of 5 mg/kg for thirty days. On the procedure: Five patients were enroIled, of which four suffered from UCMD and one of BM. The patients had mutation in their COL6A1, COL6A2 or COL6A3 genes, respectively. The trial was designed to test whether treatment with CsA was effective in reducing mitochondrial dysfunction as assessed by the ability of oligomycin to cause mitochondrial depolarization in muscle fibers. Depolarization was detected as a change in TMRM fluorescence. Patients were treated with a daily oral dose of 5 mg/kg CsA for a period of thirty days. Muscle biopsies were taken immediately before and after the treatment period and were processed for TMRM assay.

For `CC[C@H]1/C=C/C=C/C[C@@H](C)[C@H](O)[C@@](C)(O)C(=O)[C@@H](C)[C@H](O)[C@@H](C)C(=O)[C@@H](C)[C@H](O)[C@@H](C)/C=C/C(=O)O[C@@H]2[C@H](C)[C@H](CC1)O[C@]1(CC[C@H](C)[C@H](C[C@@H](C)O)O1)[C@H]2C` [oligomycin], the “percentage of cells with swollen mitochondria” value in series [1] (control (healthy donor) cultures) was 4%; in series [1] (cultures from UCMD patients), “over 40%”.

Turning to `C/C=C/C[C@@H](C)[C@@H](O)[C@H]1C(=O)N[C@@H](CC)C(=O)N(C)[C@H](C)C(=O)N(CC)[C@@H](C(C)C)C(=O)N[C@@H](C(C)C)C(=O)N(C)[C@@H](CC(C)C)C(=O)N[C@@H](C)C(=O)N[C@H](C)C(=O)N(C)[C@@H](CC(C)C)C(=O)N(C)[C@@H](CC(C)C)C(=O)N(C)[C@@H](C(C)C)C(=O)N1C` [[D-MeAla]^3-[EtVal]^4-CsA], the tolerability entry in series [2] (oral doses of 50 to 1600 mg in a micro-emulsion in water) was “well tolerated”. Further, the side effects entry in series [2] (oral doses of 50 to 1600 mg, not dose-related) was “Mild and short-lived side effects were observed including nausea, vomiting, abdominal pain, and mild headaches”.

Turning to cyclosporin A, the “occurrence of apoptosis (TUNEL) in the patient samples” value in series [3] is listed as “fully normalized the occurrence of apoptosis”. The “response to oligomycin (mitochondrial depolarization, TMRM)” value in series [4] was “fully normalized”. Further, in series [1] (UCMD cells, no oligomycin), the “number of cells with swollen mitochondria” value is listed as “decreased the number of cells with swoIlen mitochondria to the values observed in cultures from healthy donors”. Also, in series [1] (oligomycin-treated cultures plus cyclosporin A), the “percentage of cells bearing swollen mitochondria after oligomycin” value is listed as “restored to values similar to basal”. For the same compound, the “mitochondrial dysfunction as assayed by oligomycin-induced depolarization” value in the series on UCMD and BM patients is recorded as “capable of substantially reducing mitochondrial dysfunction”. Also, the “muscle cells depolarizing on oligomycin, subsequent to treatment” value with UCMD and BM patients (average of five patients, 90% prior to treatment) was 37%.

For `CC(=O)OCOC(=O)CN(CC(=O)OCOC(C)=O)c1ccccc1OCCOc1ccccc1N(CC(=O)OCOC(C)=O)CC(=O)OCOC(C)=O` [BAPTA-AM], in series [4], the “response to oligomycin (mitochondrial depolarization, TMRM)” value was “fully normalized”.
